# According to patent US20100310574A1, “METHODS AND COMPOSITIONS FOR THE TREATMENT AND DIAGNOSIS OF STATIN-INDUCED MYOPATHY” (Beth Israel Deaconess Medical Center, priority 2007, published 2010):
# “Also recorded” adds a separate entry of the source.
# Columns and labels:
# [1] = before withdrawal in August 2001; cited from earlier work
# [2] = Clinical data (CK) of statin-treated patients who gave muscle biopsies; format: in vivo, human; settings: patient with muscle pain/damage concomitantly treated with the statin; one patient per line
# Method: The atrogin-1 mRNA levels were measured in 17 human quadriceps muscle biopsies from five patients undergoing knee replacements (controls), from four patients with muscle pain but not being treated with statins, and from eight patients with muscle pain/damage concomitantly being treated with statins (the table below).
# Muscle biopsies: Muscle was obtained from three groups of patients whose characteristics are detailed in the above table. The statin-treated group included four subjects with statin-induced myopathy and 4 with statin-induced rhabdomyolysis, as commonly defined (Antons et al., Am. J. Med. 119:400-409, 2006). The non-statin myopathy group included four statin-naïve subjects with undefined myopathy. Both of these groups underwent percutaneous muscle biopsies of the vastus lateralis muscle using a Bergstrom needle. The control group included five statin-naïve subjects who volunteered muscle at the time of knee arthroplasty. Muscle from subjects in all three groups was snap frozen in liquid nitrogen for subsequent analysis. All subjects signed an IRB-approved consent form.
# Zebrafish embryos = test: Zebrafish embryo muscle fiber damage (myosin heavy chain staining); format: in vivo, Danio rerio
# Method: Zebrafish embryos were treated with lovastatin from 20 hpf to 32 hpf at different concentrations (0-5 μM).
# (§1) Zebrafish lines and maintenance: Adult zebrafish (Danio rerio) were maintained as described under standard laboratory conditions at 28.5° C. in a 14 h light/10 h dark cycle (Westerfield, “The zebrafish book: a guide for the laboratory use of zebrafish Danio (Brachydanio) rerio,” Institute of Neuroscience, University of Oregon, Eugene, Oreg., 1993). Developmental stages were determined by embryo morphology and hours post fertilization (hpf) (Kimmel et al., Dev. Dyn. 203:253-310, 1995). To examine the effects of statin, the embryos at 20-24 hpf were immersed in the embryonic water ([…], 170 μM KCl, 330 μM CaCl2, and 330 μM MgSO4) at a concentration of 0.005-10 μM lovastatin (Mevinolin; Sigma, St. Louis, Mo.) including 0.003% 1-phenyl-2-thiourea (Sigma) to inhibit pigmentation in 24 well plate. After 32 hpf, the embryos were fixed by 4% paraformaldehyde in PBS.
# Antibody staining: Whole zebrafish staining: Zebrafish embryos were fixed by 4% paraformaldehyde in PBS overnight. After fixation, the embryos were washed by PBS, stored for at least 1 h at −20° C. in methanol, and permeabilized for 30 min at −20° C. in acetone. Embryos were incubated with blocking buffer (1% BSA, 0.1% Tween-20 in PBS), and incubated with diluted primary antibody, anti-slow twitch myosin F59 (1: 200; Developmental Studies Hybridoma Bank (DSHB), Department of Biological Sciences, University of Iowa, Iowa City, Iowa 52242) (Crow and Stockdale, Dev. Biol. 118:333-342, 1986; and Devoto et al., Development 122:3371-3380, 1996) in blocking solution for overnight at 4° C. Staining was detected by using goat anti-mouse TRITC secondary antibody (1:200; Southern Biotechnology Associates, Inc.) in blocking solution for 4 h at RT (Birely et al., Dev. Biol. 280:162-176, 2005). Cross-sectional staining: Embryos were fixed overnight in 4% paraformaldehyde (PFA) and cryoprotected by the overnight incubation with increasing concentrations of sucrose (up to 30%). Samples were embedded in OCT compound and then equilibrated to −80° C. Sections (10 μm thick) were collected on SuperFrost/Plus slides and dried. Sections were rehydrated in PBS and blocked for 1 h in blocking buffer (1% BSA, 0.1% Tween in PBS). Sections were incubated overnight at 4° C. with primary antibody diluted in blocking buffer. Sections were stained with antibody as above.
# atrogin-1 promoter = test: Atrogin-1 promoter luciferase reporter in zebrafish embryos; format: in vivo, Danio rerio; settings: 0.5 μM
# Method: (§2) The effect of lovastatin on FoxO-dependent activation of the atrogin-1 promoter in zebrafish embryos was also examined. Embryos were injected with a proximal fragment of the atrogin-1 promoter linked to luciferase or the same fragment with the FoxO site mutated (Sandri et al., Cell 117:399-412, 2004). Lovastatin (0.5 μM) stimulated the reporter luciferase activity more than 7-fold, while stimulating the FoxO-less reporter only 3-fold (FIG. 14B). […] Since lovastatin treatment still lead to a small amount of luciferase activity even in the absence of FoxO binding sites in the atrogin-1 promoter-reporter, additional signaling pathways may also be important in mediating the effects of statins on atrogin-1 expression in muscle.
# [3] = test system: atrogin-1 wildtype primary myotubes; test: Myotube size, wildtype primary mouse myotubes; format: cell-based; settings: control (wildtype) cultures, two days of exposure
# [4] = test system: differentiated C2C12 mouse myocytes; test: C2C12 myotube morphology and diameter; format: cell-based
# Description: The effect of statins on muscle cells was studied by treating differentiated C2C12 mouse myocytes with various concentrations of lovastatin. […] The reduction of myotube size was quantitated by measurement of myotube thickness. This effect was clearly visible at low lovastatin concentrations, in the range of those typically found in patients administered with this medication (Pan et al., J. Clin. Pharmacol. 30:797-801, 2002, and Hostein et al., Cancer Chemother. Pharmacol. 57:155-164, 2006).
# Cell Culture: Mouse myoblast cell line C2C12 was purchased from ATCC (ATCC, Manassas, Va.) and maintained in DMEM (Mediatech, Herndon, Va.) containing 10% fetal bovine serum (Hyclone, Logan, Utah) and penicillin (100U) and streptomycin (50 ug/ml; Invitrogen, Grand Island, N.Y.). When C2C12 cells reach to 90% confluence, medium was replaced with differentiation medium of DMEM supplemented with 2% horse serum (ATCC, Manassas, Va.) to induce myotube formation. Cells were used for experiments in 4-5 days after differentiation. Lovastatin (>98% purity) (mevinolin; Sigma, St. Louis, Mo.) was prepared as a 50 mM stock solution in DMSO as reagent vehicle, further diluted in DMSO, and added into the medium. The final volume DMSO in medium is not more than 0.125%, which there is not obvious cytotoxicity. Equal volume of reagent vehicle was used for all experiments and reagent vehicle only serviced as controls. Each experiment was performed at least three times.
# (§3) Myotube Fiber Size: Size was quantified by measuring a total of 200 tube diameters as described by Sandri et al. (supra). Briefly, muscle fiber size from four random fields at 100 magnification was measured using IMAGE software (Scion, Frederick, Md.). All data were expressed in Mean±S.E.M. Comparisons were made by using the Student's T-test, with p<0.05 being considered statistically significant.
# functional mitochondria = test: MitoTracker staining and FACS of cells from zebrafish embryos; format: in vivo, Danio rerio; settings: lovastatin 0.5 or 1.0 μM
# Method: Mitochondrial staining and FACS analysis: Embryos were treated with lovastatin (0, 0.5, 1.0 μM at 20-32 hpf) or treated with the combination of lovastatin (0.5 μM) following PGC-1α (or vehicle) cDNA injection (100 pg/embryo at the one-cell stage). 1-Phenyl-2-thiourea (0.003%; Sigma) was added at 20 hpf. After phenotypes were observed, 100 embryos from each condition were decholionated by protease and homogenized for 3-5 minutes in 0.9× phosphate buffered saline (PBS)/10% fetal bovine serum (FBS), then centrifuged at 3000 rpm for 5 minutes, digested with trypsin/EDTA and dispersed at room temperature. After adding 1 mL of 0.9×PBS/10% FBS, the dispersed cells were filtered ([…]) and washed twice with 0.9×PBS/10% FBS. The cells were incubated in 100 nM MitoTracker Red CMXRos (Invitrogen) in 0.9×PBS/10% FBS for 15 minutes in the dark. The cells were washed twice in 0.9×PBS/10% FBS and subjected to […] (FACS) analysis. EPICS XL (Beckman Coulter) was used for the fluorescence detection (absorption wavelength: 578 nm; emission wavelength: 599 nm) and data was analyzed with Expo32ADC software. Ten thousand cells were counted for each treatment condition.
# atrogin-1 (−/−) myotubes = test: Myotube size, atrogin-1 (-/-) primary mouse myotubes; format: cell-based; settings: 0.25 and 1.0 μM
# Method: as §3
# Cell Culture: Primary mouse myoblasts from atrogin-1 null mice (Regeneron, Tarrytown N.Y.) were isolated as follows: muscle was removed from the hind limbs of two-week old mice. After treatment with 0.1% collagenase D and Dispase II (Roche, Indianapolis, Ind.), the isolated cells were plated on collagen (Type I, Roche, Indianapolis, Ind.)-coated dishes. Myoblasts were subsequently enriched and cultured in F-10 nutrient medium with 20% fetal calf serum and 2.5 ng/ml bFGF (Invitrogen, Grand Island, N.Y.). Myotubes were induced in differentiation medium. All media contained 1× Primocin (InvivoGen, San Diego, Calif.). The cultures were maintained at 37° C., under 5% and 8% CO2 humidified air atmosphere for myoblasts and myotubes, respectively. Cultures were ready to use in assays on day 2 in differentiation medium when the myotubes had formed and were contracting.
# C2C12 myotubes = test: Proteolytic rate in C2C12 myotubes (3H-tyrosine release); format: cell-based, mouse; settings: compared with control cultures
# Method: Measurement of Proteolytic Rate: Differentiated C2C12 myotubes were incubated with ^3H-tyrosine (5 μCi/mL media) for 20 hours to label cell proteins, and switched to medium containing 2 mM unlabeled tyrosine, vehicle, lovastatin, or dexamethasone for another 20 hours. After media replacement, an aliquot of medium was collected once per hour for 4 hours. The collected media was treated with TCA (10% w/v final concentration) to precipitate protein. Since the high concentration of unlabeled tyrosine in the media prevents re-incorporation of ^3H-tyrosine into new protein, the radioactivity in the supernatant represent degraded protein from the pool of prelabeled, intracellular, long-lived proteins. Proteolytic rate was defined as the percentage of released radioactivity per hour calculated from the period of 20 hours to 24 hours of lovastatin or dexamethasone treatment, when ^3H-tyrosine release is linear over time. These rates were compared with proteolytic rates in parallel cultures treated with vehicle alone. All measurements were done in triplicate and then independently repeated at least twice.
# atrogin-1 protein = test: Atrogin-1 protein in C2C12 myotubes by Western blotting; format: cell-based, mouse; settings: vs non-treated control cells
# Method: Western Blotting Cultured cells after treatment were collected at specific times and solubilized in RIPA lysis buffer (50 mM Tris-HCl, pH 7.4; 150 mM NaCl, 1% NP-40, 0.5% sodium deoxycholate, 0.1% SDS (Boston Bioproducts, Boston Mass.), protease (Roche) and phosphatase (Sigma) inhibitor cocktail). […]
# atrogin-1 mRNA = test: Atrogin-1 mRNA in C2C12 myocytes by real time PCR; format: cell-based, mouse; settings: 10 μM
# Method: Quantitative PCR: Atrogin-1 mRNA levels were determined by real-time PCR using the Applied Biosystems® 7500 real-time PCR analyzer according to the method recently described by others (Okuno et al., Blood 100:4420-4426, 2002, and Yang et al., J. Cell Biochem. 94:1058-1067, 2005). Multiplexed amplification reactions were performed using 18S rRNA as an endogenous control (18S rRNA primers/VIC-labeled probe Applied Biosystems #4310893E) using the TaqMan One Step PCR Master Mix reagents Kit (#4309169, Applied Biosystems). The following settings were used: Stage 1 (reverse transcription): 48° C. for 30 min; Stage 2 (denaturation): 95° C. for 10 min; and Stage 3 (PCR): 95° C. for 15 sec and 60° C. for 60 sec for 40 cycles. […] Fluorescence data were analyzed by SDS1.7 software (Applied Biosykems). […] All RNA samples were analyzed in triplicate, with the mean value used in subsequent analyses.
# Cell Culture: Mouse myoblast cell line C2C12 was purchased from ATCC (ATCC, Manassas, Va.) and maintained in DMEM (Mediatech, Herndon, Va.) containing 10% fetal bovine serum (Hyclone, Logan, Utah) and penicillin (100U) and streptomycin (50 ug/ml; Invitrogen, Grand Island, N.Y.). […]
# Quantitative PCR: Performed as described above.
# zebrafish atrogin-1 = test: Atrogin-1 mRNA and protein expression in zebrafish embryos; format: in vivo, Danio rerio; settings: lovastatin treatment
# Method: as §1
# Western blotting: Zebrafish embryos were homogenized in SDS sample buffer (30 embryos/30 μl of sample buffer) with microfuge pestle until the lysate became uniform in consistency and there was no longer stringy inside. The lysate was boiled for 5 minutes and centrifuged supernatant was processed for Western blotting (Hanai et al., J. Cell Biol. 158:529-539, 2002).
# [5] = test system: phosphor-Akt, phosphor-FoxO3, and phosphor-p70S6K; test: Phosphorylated Akt/FoxO3/p70S6K in C2C12 myotubes (immunoblot); format: cell-based, mouse; settings: 1, 2.5 or 5 μM, 24 hours
# Method: Western Blotting Cultured cells after treatment were collected at specific times and solubilized in RIPA lysis buffer (50 mM Tris-HCl, pH 7.4; 150 mM NaCl, 1% NP-40, 0.5% sodium deoxycholate, 0.1% SDS (Boston Bioproducts, Boston Mass.), protease (Roche) and phosphatase (Sigma) inhibitor cocktail). Proteins were separated by SDS-PAGE, transferred to PVDF membranes and visualized by Western blotting using alkaline phosphatase-based CDP-star chemiluminescent detection according to manufacturer's protocol (Applied Biosystems, Bedford, Mass.).
# as §2
compound,measurement,setting,value
COCc1c(C(C)C)nc(C(C)C)c(/C=C/[C@@H](O)C[C@@H](O)CC(=O)O)c1-c1ccc(F)cc1 [cerivastatin],rhabdomyolysis-related deaths,[1],approximately 100
CC[C@H](C)C(=O)O[C@H]1C[C@@H](C)C=C2C=C[C@H](C)[C@H](CC[C@@H]3C[C@@H](O)CC(=O)O3)[C@H]21 [lovastatin],CK (clinical data),[2],"Weakness, CK 932"
same,muscle phenotype,"Zebrafish embryos; 0-5 μM, 20 hpf to 32 hpf",clear dose-dependent muscle phenotypes
same,embryos with class 1 defects,Zebrafish embryos; 0.05 μM,more than 50%
same,embryos with class 3 changes,Zebrafish embryos; 5 μM,over 60%
same,"concentration giving class 1 changes (bowing, gap formation, fiber disruption)",Zebrafish embryos; 20 hpf to 32 hpf,25 to 50 nM
same,"concentration giving class 2 changes (fiber thinning, attenuated MHC staining)",Zebrafish embryos; 20 hpf to 32 hpf,50 to 500 nM
same,concentration giving class 3 changes (irregular somite boundaries),Zebrafish embryos; 20 hpf to 32 hpf,1000 to 5000 nM
same,stimulation of reporter luciferase activity,atrogin-1 promoter; FoxO-less (FoxO site mutated) reporter,3 fold
same,stimulation of reporter luciferase activity,atrogin-1 promoter; atrogin-1 promoter fragment with FoxO site,more than 7 fold
same,decrease of tube diameter,[3],≤ 50%
same,loss of myotubes,[4]; by 5 days,almost complete loss of myotubes
same,myotube morphology / thickness,[4]; increasing concentrations (0-10 μM) vs vehicle,myotubes became progressively thinner
same,treatment time after which morphological changes were visible,[4]; myotube cultures,24 hours
same,MitoTracker fluorescence intensity,functional mitochondria,shifted to the left
same,change in myotube size,atrogin-1 (−/−) myotubes,Little change in myotube size
same,increase in the rate of bulk muscle proteolysis,C2C12 myotubes,5-10%
same,atrogin-1 induction (protein),"atrogin-1 protein; 1.0 μM, 48 hours",about 1.5 fold
same,atrogin-1 induction (protein),atrogin-1 protein; 10 μM,about 2.5 fold
same,atrogin-1 mRNA,atrogin-1 mRNA; 6 hours,significantly increased
same,atrogin-1 mRNA induction,atrogin-1 mRNA; 36 hours,≤ 6 fold
same,zebrafish atrogin-1 mRNA and protein level,zebrafish atrogin-1,clearly and dose-dependently elevated
same,phosphorylated signaling intermediates,[5],dose-dependent reduction
CCC(C)(C)C(=O)O[C@H]1C[C@@H](C)C=C2C=C[C@H](C)[C@H](CC[C@@H]3C[C@@H](O)CC(=O)O3)[C@H]21 [simvastatin],CK (clinical data),[2],"Weakness, CK 51,080; also recorded: Weakness, CK 8,264; also recorded: Weakness, CK 39,000; also recorded: Muscle pain and weakness, CK 62; also recorded: Muscle pain and weakness, CK 649"
CC(C)c1c(C(=O)Nc2ccccc2)c(-c2ccccc2)c(-c2ccc(F)cc2)n1CC[C@@H](O)C[C@@H](O)CC(=O)O [atorvastatin],CK (clinical data),[2],"Muscle pain and weakness, CK 47; also recorded: Muscle pain and weakness, CK 73"
